Each block holds one molecule with its values, some of them ahead of it.
Legend:
[1] = test system: BCL-2 (RNA, G4) AGGGGGCCGUGGGGUGGGAGCUGGGG; test: fluorescence titration, 1:1 fit; conditions: 40 mM K+; 20 mM Tris-HCl pH 7.0, 25 °C; 2 µM CyT
[2] = test system: NRAS-mut (RNA, single strand) GUGAGUUGCGUGUCUGUG; test: fluorescence enhancement; conditions: 40 mM K+; 20 mM Tris-HCl pH 7.0; 2 µM CyT, 4 µM RNA; very weak fluorescence
[3] = test system: Tel22 (RNA, G4) AGGGUUAGGGUUAGGGUUAGGG; test: fluorescence titration, 1:1 fit; conditions: 40 mM K+; 20 mM Tris-HCl pH 7.0, 25 °C; 2 µM CyT
[4] = test system: NRAS (RNA, G4) GGGAGGGGCGGGUCUGGG; test: fluorescence titration, 1:1 fit; conditions: 40 mM K+; 20 mM Tris-HCl pH 7.0, 25 °C; 2 µM CyT
[5] = test system: VEGF (RNA, G4) GGAGGAGGGGGAGGAGGA; test: fluorescence titration, 1:1 fit; conditions: 40 mM K+; 20 mM Tris-HCl pH 7.0, 25 °C; 2 µM CyT
[6] = test system: 3-WJ (RNA, junction) AGCGCAACCCC/UCGUCAGCU/GGGACGACGU; test: fluorescence enhancement; conditions: 40 mM K+; 20 mM Tris-HCl pH 7.0; 2 µM CyT, 4 µM RNA; very weak fluorescence
[7] = test system: tRNA-Cys fragment (RNA, G4) GGGGGUAUAGCUCAGUGGUAGAGCAUUUGA; test: fluorescence enhancement
[8] = test system: Bulges-TB1 (RNA, G4) UUGUGGUGGGUGGGUGGGU; test: fluorescence enhancement
[9] = test system: HP18 (HP-18) (RNA, hairpin) CAGUACAGAUCUGUACUG; test: fluorescence titration, 1:1 fit; conditions: 40 mM K+; 20 mM Tris-HCl pH 7.0, 25 °C; 2 µM CyT
[10] = test system: Tel22-mut (RNA, single strand) AGUGUUAGUGUUAGUGUUAGUG; test: fluorescence enhancement; conditions: 40 mM K+; 20 mM Tris-HCl pH 7.0; 2 µM CyT, 4 µM RNA; very weak fluorescence
[11] = test system: 4-WJ (RNA, junction) GCGC/UUUAGC/GAGGUCCU/AGAA; test: fluorescence enhancement; conditions: 40 mM K+; 20 mM Tris-HCl pH 7.0; 2 µM CyT, 4 µM RNA; very weak fluorescence
[12] = test system: Spinach (RNA, aptamer) GCAGCCGGCUUGUUGAGUAGAGUGUGAGCUCCGUAACUGGUCGCGUC/GACGCGACCGAAUGAAAUGGUGAAGGACGGGUCCAGCCGGCUGC; test: fluorescence enhancement
[13] = test system: dsNC (RNA, duplex) UUGUGCUACCAGGAGUCUG/CAGACUCCUGGUAGCACAA; test: fluorescence titration, 1:1 fit; conditions: 40 mM K+; 20 mM Tris-HCl pH 7.0, 25 °C; 2 µM CyT
[14] = test system: ssAf22 (RNA, single strand) UGAGCUUAAUUGUAUAUAUUCG; test: fluorescence titration, 1:1 fit; conditions: 40 mM K+; 20 mM Tris-HCl pH 7.0, 25 °C; 2 µM CyT
[15] = test system: tRNA-Ala fragment (RNA, G4) GGGGGUGUAGCUCAGUGGUAGAGCGCGUGC; test: fluorescence enhancement
[16] = test system: ssAf17 (RNA, single strand) CUGAGUUGUAUAUAUUCG; test: fluorescence titration, 1:1 fit; conditions: 40 mM K+; 20 mM Tris-HCl pH 7.0, 25 °C; 2 µM CyT
[17] = test system: TRF2 (RNA, G4) CGGGAGGGCGGGGAGGGC; test: fluorescence titration, 1:1 fit; conditions: 40 mM K+; 20 mM Tris-HCl pH 7.0, 25 °C; 2 µM CyT
[18] = test system: VEGF (RNA, G4) GGAGGAGGGGGAGGAGGA; test: fluorescence enhancement; conditions: about 200-fold enhancement
[19] = test system: Tel22 (RNA, G4) AGGGUUAGGGUUAGGGUUAGGG; test: fluorescence enhancement; conditions: about 290-fold enhancement
[20] = test system: ssAf17 (RNA, single strand) CUGAGUUGUAUAUAUUCG; test: fluorescence enhancement; conditions: about 100-fold enhancement
[21] = test system: HP18 (HP-18) (RNA, hairpin) CAGUACAGAUCUGUACUG; test: fluorescence enhancement; conditions: about 330-fold enhancement

binding constant [1]: (1.94 ± 0.29) × 10^5 M^-1
binding [2]: weak
binding constant [3]: (1.17 ± 0.37) × 10^5 M^-1
binding constant [4]: (3.49 ± 0.77) × 10^5 M^-1
binding constant [5]: (1.44 ± 0.29) × 10^5 M^-1
binding [6]: weak
binding ([7]; 40 mM K+, 20 mM Tris-HCl pH 7.0, 2 µM CyT, 4 µM RNA, about 205-fold enhancement): yes
binding ([8]; 40 mM K+, 20 mM Tris-HCl pH 7.0, 2 µM CyT, 4 µM RNA, about 1800-fold enhancement): yes
binding constant [9]: (2.89 ± 0.28) × 10^4 M^-1
binding [10]: weak
binding [11]: weak
binding ([12]; 40 mM K+, 20 mM Tris-HCl pH 7.0, 2 µM CyT, 4 µM RNA, about 327-fold enhancement): yes
binding constant [13]: (2.42 ± 0.25) × 10^4 M^-1
binding constant [14]: (4.03 ± 0.36) × 10^4 M^-1
binding ([15]; 40 mM K+, 20 mM Tris-HCl pH 7.0, 2 µM CyT, 4 µM RNA, about 200-fold enhancement): yes
binding constant [16]: (4.40 ± 0.38) × 10^4 M^-1
binding constant [17]: (2.81 ± 0.63) × 10^5 M^-1
SMILES: CC(=Cc1sc2ccc3ccccc3c2[n+]1CCCS(=O)(=O)[O-])C=C1Sc2ccc3ccccc3c2N1CCCS(=O)(=O)O

binding [18]: yes
binding [19]: yes
binding [20]: yes
binding ([7]; about 150-fold enhancement): yes
binding ([8]; about 570-fold enhancement): yes
binding [21]: yes
binding ([12]; about 200-fold enhancement): yes
binding ([15]; about 230-fold enhancement): yes
SMILES: CN1C(=Cc2cc[n+](C)c3ccccc23)Sc2ccccc21
